Reference: patent publication US5554359A, “Pigmentation enhancer and method” (priority 1994, dated 1996)

Experiments:
[1] = system: melanin in human melanocytes; conditions: three days; melanocyte cultures; cited from earlier work
[2] = system: tyrosinase activity in human melanocytes; assay: Tyrosinase responses in human melanocytes (Table 6); assay type: cell-based
Protocol: (§1) The mouse melanoma cell lines used to study the effects of lysosomotropic agents herein were the Cloudman S91 cell line (ATCC no. CCL 53.1) and two subclones of this line developed in our laboratory, the amelanotic line, AM-7, and a melanotic line, MEL-11A. All melanoma cell lines were grown in Ham's F-10 nutrient medium supplemented with 10% horse serum, penicillin (100 units/ml), and streptomycin (100 μg/ml). The normal human melanocyte cell strains used in this study were derived from foreskins of either neonares or from boys 2-6 years old. Human melanocyte cultures were grown in Ham's F-10 nutrient medium supplemented with 10% horse serum, 5% fetal bovine serum (FBS), 32 nM TPA (12-O-tetradecanoylphorbol 13-acetate), 10^-4 M IBMX(3-isobutyl-1-methylxanthine), penicillin (100 units/ml), and streptomycin (100 μg/ml).
(§2) To determine tyrosinase activity in situ in either melanoma cells or in human melanocyte cultures, the tyrosine hydroxylase activity of the enzyme was determined. Cells were seeded into 60-mm culture dishes at 2×10^5 cells/dish and allowed to attach overnight. The medium was then exchanged for the appropriate growth medium supplemented with 1 μCi/ml of [^3 H]tyrosine (L-ring-3,5-^3 H]-tyrosine, DuPont New England Nuclear), and with hormones, where indicated. Cells were grown in labeled medium for 24 hours, and at this time, the medium was removed and assayed for the presence of ^3 H2 O using the charcoal absorption method of Pomerantz. Tyrosinase activity in cell homogenates was determined by sonicating cell pellets in 0.1-M sodium phosphate buffer (pH 6.8) and then incubating 50-μl aliquots in 0.5 ml of a reaction mixture containing 0.1-mM tyrosine, 2 μCi/ml of [^3 H]tyrosine, 0.1-mM L-DOPA (dihydroxyphenylalanine), and 0.1 mM PMSF (phenylmethylsulfonyl fluoride) at 37° C. for 2 hours. Reactions were terminated by the addition of 1 ml of charcoal (10% w/v in 0.1-N HCl). Samples were centrifuged, and the supernatants removed for determination of the amount of ^3 H2 O produced.
Hormone responsiveness in human melanocyte cell cultures were examined (for these studies, melanocytes derived from skin type III were used). […] Tyrosinase activity and melanin content typically double with a 48-hour exposure to IBMX. […] The steroid hormones, for the most part, caused little, if any, change in tyrosinase activity at the concentrations used.

[3] = system: tyrosinase abundance in mouse melanoma cells; conditions: other studies; cited from earlier work
[4] = system: melanin in human melanocytes; assay: Melanin content in human melanocytes; assay type: cell-based
Protocol: as §1
The amount of melanin in melanoma cells or in melanocytes was determined by incubating cell pellets in 2 ml of 1-N NaOH for 48 hours at 37° C. and then measuring the solubilized melanin at 400 nm.
(§3) Dose/response parameters for ammonium chloride action were determined. […] Since tyrosinase is the rate-limiting enzyme for melanin synthesis, the stimulation of this enzyme by ammonium chloride should lead to increased melanin content of stimulated cells. […] Ammonium chloride increased tyrosinase activity in melanocytes from white-skinned individuals twenty-fold within 24 hours and by this time melanin contents had increased two-fold. Two other lysosomotropic agents, monensin and nigericin, were tested for their effects on tyrosinase activity. […] Thus, lysosomotropic agents have the ability to stimulate tyrosinase activity and melanin production in human melanocytes derived from white-skinned individuals, and to reduce melanin production in melanocytes from black-skinned people.

[5] = system: tyrosinase activity in human foreskin organ cultures; assay: Tyrosinase activity in human foreskin organ cultures (tyrosine hydroxylase assay); assay type: cell-based; conditions: Table 2; 0.1 mM; 72 h; control 3.15 ± 0.1; triplicate ± s.d.
Protocol: At the time of surgical removal, human foreskins were placed on sterile gauze saturated with sterile IMDM medium (Iscove's modified Dulbecco's medium purchased from Irvine Scientific of Santa Ana, Calif.) for transportation from the Hospital nursery to the laboratory. The tissues were rinsed in sterile IMDM medium containing 500 U/ml penicillin and 500 μg/ml of streptomycin for 5 minutes. Under sterile conditions, an intradermal injection of medium was performed from the dermal side prior to dissection of the mucous membrane and lower dermis by scissors to make the thickness of skins equal. The foreskins were then cut into approximately 3 mm×3 mm squares and either frozen at -75° C. or placed in organ culture as described hereafter.
The organ culture medium was prepared from IMDM with glutamine supplemented with 20% horse serum, 5% fetal bovine serum, 100 U/ml penicillin, 100 μg/ml streptomycin and 3 mg/ml sodium bicarbonate. The serums were obtained from Hyclone Lab. Inc. of Logan Utah. Culture units were prepared by placing sterilized filters (AP20 025 00, Millipore) over sterilized support screens ([…] Swinnex filter support screens, Millipore) in the wells of 6-well tissue culture plates (Falcon 3046) with medium added to the wells such that the skin support screens floated and the filter absorbed the medium from beneath. The tissue samples were placed, epidermis up, on top of the saturated filters and incubated at 37° C. in a 5% CO2 humidified atmosphere. The medium was changed everyday. Harvested cultures were frozen at -75° C.
Tyrosinase activity in human skin organ cultures was determined by measuring the tyrosine hydroxylase activity of the enzyme. The assay measures the production of ^3 H2 O during the conversion of [^3 H]tyrosine to L-DOPA. Weighed skin preparations were incubated in 0.3 ml of a reaction mixture containing 0.01 mM of L-tyrosine, 5-6 uCi/ml of [^3 H]tyrosine and 0.1 mM L-DOPA in 0.1M of pH 6.8 phosphate buffer for 4 hours at 37° C. To terminate the reaction, 1 ml of phosphate buffer was added, the tubes vortexed, and 0.4 ml aliquots removed in triplicate and mixed with an equal volume of Norit SG activated charcoal (10% w/v, in 0.1N HCl). Following centrifugation at 2000×g for 10 min, the supernatants (0.5 ml) were placed in scintillation vials, scintillation fluid added, and vials counted in a TM Analytic 6895 scintillation counter equipped with a DPM processor.
Human foreskins were treated with the compounds shown in Table 1, placed in culture, and incubated for 72 hours. The skins were then assayed for tyrosinase activity with the tyrosine hydroxylase assay method as described herein.
The medium and compounds were changed daily. Tyrosinase activity was determined by measuring the tyrosine hydroxylase activity of the enzyme.
Human foreskin organ cultures were treated with the compounds listed in Table 3 for 3 days and tyrosinase activity determined as described herein. Theophylline was used at 1 mM.

[6] = system: tyrosinase activity in mouse melanoma cells; assay: Tyrosinase responses in mouse melanoma cells (Table 6); assay type: cell-based; conditions: for Effect on Tyrosinase Activity, Mouse Melanoma: Table 6, 10^-7 M except IBMX 10^-4 M, theophylline 1 mM, ammonium chloride 10 mM, A23187 not given
Protocol: as §1
as §2, with “produced. […]” for “produced.”

tyrosinase mRNA = conditions: three days; melanocyte cultures; cited from earlier work
[7] = system: tyrosinase activity in mouse melanoma cells; conditions: Cloudman S91; cited from earlier work
[8] = system: tyrosinase activity in human melanocytes from black individuals; assay: Tyrosinase activity in human melanocytes from black skin; assay type: cell-based; conditions: 10 mM
Protocol: The mouse melanoma cell lines used to study the effects of lysosomotropic agents herein were the Cloudman S91 cell line (ATCC no. CCL 53.1) and two subclones of this line developed in our laboratory, the amelanotic line, AM-7, and a melanotic line, MEL-11A. All melanoma cell lines were grown in Ham's F-10 nutrient medium supplemented with 10% horse serum, penicillin (100 units/ml), and streptomycin (100 μg/ml). The normal human melanocyte cell strains used in this study were derived from foreskins of either neonares or from boys 2-6 years old. […]
(§4) To determine tyrosinase activity in situ in either melanoma cells or in human melanocyte cultures, the tyrosine hydroxylase activity of the enzyme was determined. […] Tyrosinase activity in cell homogenates was determined by sonicating cell pellets in 0.1-M sodium phosphate buffer (pH 6.8) and then incubating 50-μl aliquots in 0.5 ml of a reaction mixture containing 0.1-mM tyrosine, 2 μCi/ml of [^3 H]tyrosine, 0.1-mM L-DOPA (dihydroxyphenylalanine), and 0.1 mM PMSF (phenylmethylsulfonyl fluoride) at 37° C. for 2 hours. […]
Dose/response parameters for ammonium chloride action were determined. […]

[9] = system: tyrosinase activity in AM-7 cells; assay: Tyrosinase activity in amelanotic mouse melanoma clone AM-7; assay type: cell-based
Protocol: as §1, §4

[10] = system: tyrosinase activity in human melanocytes from white-skinned individuals; assay: Tyrosinase activity in human melanocytes from white skin; assay type: cell-based
Protocol: as §1, §2, §3

[11] = system: tyrosinase activity in MEL-11A cells; assay: Tyrosinase activity in melanotic mouse melanoma clone MEL-11A; assay type: cell-based; conditions: MSH 10^-7 M or ammonium chloride 10 mM; 24 h; FIG. 4 bottom
Protocol: as §1, §4

[12] = system: tyrosinase activity in mouse melanoma cells; conditions: e.g., 10^-5 M; footnote b of Table 6; cited from earlier work
[13] = within 24 hours, white-skinned individuals

**Q.** For `CC(C)Cn1c(=O)n(C)c(=O)c2[nH]cnc21` [IBMX, 3-isobutyl-1-methylxanthine], which “increase in melanin production” value [1] is on record?
**A.** fourfold increase

**Q.** And the “Tyrosinase Activity” value ([2]; 48-hour exposure, IBMX)?
**A.** double

**Q.** What about the activity at 100 µM ([2]; Homo sapiens, Melanocyte, Table 6, 10^-7 M except IBMX 10^-4 M, theophylline 1 mM, ammonium chloride 10 mM, A23187 not given, melanocytes from skin type III, read-out: Effect on Tyrosinase Activity, Human Melanocyte) of the same compound?
**A.** 150 to 200%

**Q.** And the “tyrosinase activity correlates with enzyme abundance” value [3]?
**A.** correlates with an increase in enzyme abundance

**Q.** What about the “melanin content” value ([4]; 48-hour exposure, IBMX) of the same compound?
**A.** double

**Q.** What about the “Tyrosinase Activity” value [5] of the same compound?
**A.** 7.03 ± 0.49 pmoles ^3 H2 O/hour/mg skin

**Q.** And the “response of mouse melanoma cells” value ([6]; compounds that raise intracellular cAMP levels or MSH)?
**A.** respond vigorously

**Q.** What about the “change in amount of tyrosinase mRNA” value (tyrosinase mRNA) of the same compound?
**A.** not accompanied by any increase

**Q.** And the “mimicking of the MSH response” value [7]?
**A.** mimicked

**Q.** With `Cl.N` [Ammonium chloride, ammonium chloride] as the compound, how does the “tyrosinase activity in human melanocytes” value ([2]; Table 6 text) read?
**A.** stimulates tyrosinase activity

**Q.** And the “Tyrosinase Activity” value ([8]; 48 hours, cell strain #90A6, FIG. 5)?
**A.** depressed

**Q.** And the “tyrosinase activity in highly melanized melanocytes” value ([8]; black skin types, footnote c of Table 6)?
**A.** markedly inhibite

**Q.** What about the “melanin versus untreated cells” value ([4]; 10 mM, 3 days, cell strain 69W, FIG. 7) of the same compound?
**A.** twice as much melanin than untreated cells

**Q.** What about the “increase in melanin contents” value [4, 13] of the same compound?
**A.** two-fold

**Q.** What about the “Effect on Tyrosinase Activity, Mouse Melanoma” value [6] of the same compound?
**A.** ++ (>300%)

**Q.** What about the “tyrosinase activity in mouse melanoma cells” value ([6]; Table 6 text) of the same compound?
**A.** stimulates tyrosinase activity

**Q.** And the “stimulation of tyrosinase activity in presence of cycloheximide” value ([9]; 10 mM ammonium chloride with or without cycloheximide, data not shown)?
**A.** stimulation occurred in cells treated with or without cycloheximide

**Q.** What about the “increase in tyrosinase activity” value ([9]; 10 mM ammonium chloride, 24 h, FIG. 4 top) of the same compound?
**A.** two-fold increase

**Q.** What about the “Tyrosinase Activity” value ([10]; 10 mM, 48 hours, cell strain #84W, FIG. 5) of the same compound?
**A.** markedly elevated

**Q.** And the “tyrosinase activity in melanocytes derived from white skin” value ([10]; 10 mM, footnote c of Table 6)?
**A.** stimulates tyrosinase activity

**Q.** What about the “concentration of maximal stimulation of tyrosinase activity” value ([10]; cell strain 69W, 48 hours, FIG. 6) of the same compound?
**A.** 7.5 mM

**Q.** And the “stimulation of tyrosinase activity” value ([10]; cell strain 69W, up to four hours, FIG. 8)?
**A.** effective in stimulating tyrosinase activity

**Q.** What about the “increase in tyrosinase activity” value [10, 13] of the same compound?
**A.** twenty-fold

**Q.** And the “increase in tyrosinase activity” value [11]?
**A.** four-fold increase

**Q.** Which “effect on tyrosine activity at higher concentrations” value [12] does the source give for `CC1=C(/C=C/C(C)=C/C=C/C(C)=C/C(=O)O)C(C)(C)CCC1` [Retinoic Acid, all-trans] here?
**A.** stimulate tyrosine activity

**Q.** And the “Effect on Tyrosinase Activity, Human Melanocyte” value ([2]; Table 6, 10^-7 M except IBMX 10^-4 M, theophylline 1 mM, ammonium chloride 10 mM, A23187 not given, melanocytes from skin type III)?
**A.** Inhibited

**Q.** And the “Effect on Tyrosinase Activity, Mouse Melanoma” value [6]?
**A.** Inhibited
